In PubChem BioAssay AID1963970 (Molecular Pharmacology Branch, DTP, NCI, 2024):

Tested on: 931267-113-T-J1-PDC multicell spheroid viability
Assay: Anticancer human tumor 931267-113-T-J1-PDC patient-derived colon adenocarcinoma cell line growth inhibition [PI3K]
Details: for IC50: curve of first compound; for viability, T/C: stronger effect = lower value
Procedure, shortened: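 Tumor cells grown as multi-cell spheroids with HUVEC endothelial cells and MSC fibroblast-like stroma were treated with targeted agents combined with inavolisib, alpelisib, duvelisib or copanlisib. Doses fell in half-log steps from near clinical Cmax, else from 10 microM. Viability was measured.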

[1] = second compound 0.00316 µM, first compound 0.0316 µM
[2] = second compound 0.00316 µM, first compound 0.1 µM
[3] = second compound 0.00316 µM, first compound 0.316 µM
[4] = second compound 0.00316 µM, first compound 1 µM
[5] = second compound 0.00316 µM, first compound 3.16 µM
[6] = second compound 0.00316 µM, first compound 10 µM
[7] = second compound 0.01 µM, first compound 0.0316 µM
[8] = second compound 0.01 µM, first compound 0.1 µM
[9] = second compound 0.01 µM, first compound 0.316 µM
[10] = second compound 0.01 µM, first compound 1 µM
[11] = second compound 0.01 µM, first compound 3.16 µM
[12] = second compound 0.01 µM, first compound 10 µM
[13] = second compound 0.0316 µM, first compound 0.0316 µM
[14] = second compound 0.0316 µM, first compound 0.1 µM
[15] = second compound 0.0316 µM, first compound 0.316 µM
[16] = second compound 0.0316 µM, first compound 1 µM
[17] = second compound 0.0316 µM, first compound 3.16 µM
[18] = second compound 0.0316 µM, first compound 10 µM
[19] = second compound 0.1 µM, first compound 0.0316 µM
[20] = second compound 0.1 µM, first compound 0.1 µM
[21] = second compound 0.1 µM, first compound 0.316 µM
[22] = second compound 0.1 µM, first compound 1 µM
[23] = second compound 0.1 µM, first compound 3.16 µM
[24] = second compound 0.1 µM, first compound 10 µM
[25] = second compound 0.316 µM, first compound 0.0316 µM
[26] = second compound 0.316 µM, first compound 0.1 µM
[27] = second compound 0.316 µM, first compound 0.316 µM
[28] = second compound 0.316 µM, first compound 1 µM
[29] = second compound 0.316 µM, first compound 3.16 µM
[30] = second compound 0.316 µM, first compound 10 µM
[31] = second compound 1 µM, first compound 0.0316 µM
[32] = second compound 1 µM, first compound 0.1 µM
[33] = second compound 1 µM, first compound 0.316 µM
[34] = second compound 1 µM, first compound 1 µM
[35] = second compound 1 µM, first compound 3.16 µM
[36] = second compound 1 µM, first compound 10 µM
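Also: viability read 7 days after compound addition.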

With `C=CC(=O)N1CCN(c2nc(=O)n(-c3c(C)ccnc3C(C)C)c3nc(-c4c(O)cccc4F)c(F)cc23)C(C)C1` (stereo unspecified) + COc1c(OCCCN2CCOCC2)ccc2c3n(c(=NC(=O)c4cnc(N)nc4)nc12)CCN3 the IC50 (second compound 0.00316 µM) was > 10 µM, the IC50 (second compound 0.01 µM) was > 10 µM and the IC50 (second compound 0.0316 µM) was > 10 µM. The IC50 (second compound 0.1 µM) was > 10 µM, the IC50 (second compound 0.316 µM) was < 0.0316 µM and the IC50 (second compound 1 µM) was < 0.0316 µM. The viability, T/C [1] was 107%, the viability, T/C [2] was 107% and the viability, T/C [3] was 101%. The viability, T/C [4] was 95.3%, the viability, T/C [5] was 103% and the viability, T/C [6] was 101%. For the same compound, the viability, T/C [7] was 102%, the viability, T/C [8] was 106% and the viability, T/C [9] was 91.4%. For the same compound, the viability, T/C [10] was 99.4%, the viability, T/C [11] was 103% and the viability, T/C [12] was 81.1%. The viability, T/C [13] was 95.5%, the viability, T/C [14] was 98.3% and the viability, T/C [15] was 90.4%. For the same compound, the viability, T/C [16] was 85.1%, the viability, T/C [17] was 86.5% and the viability, T/C [18] was 79.1%. The viability, T/C [19] was 71.2%, the viability, T/C [20] was 68.6% and the viability, T/C [21] was 70.5%. For the same compound, the viability, T/C [22] was 73.7%, the viability, T/C [23] was 71.4% and the viability, T/C [24] was 62.5%. It also gave a viability, T/C [25] of 49.5%, a viability, T/C [26] of 44.1% and a viability, T/C [27] of 47.6%. The viability, T/C [28] was 51.5%, the viability, T/C [29] was 52.3% and the viability, T/C [30] was 46.6%. It also gave a viability, T/C [31] of 35.1%, a viability, T/C [32] of 29.1% and a viability, T/C [33] of 35.1%. It also gave a viability, T/C [34] of 35.3%, a viability, T/C [35] of 36.5% and a viability, T/C [36] of 32.5%.

With `CNC(=O)c1ccc(N2C(=S)N(c3ccc(C#N)c(C(F)(F)F)c3)C(=O)C2(C)C)cc1F` + CC(Nc1ccc2c(c1)OCCn1cc(N3C(=O)OCC3C(F)F)nc1-2)C(N)=O the IC50 (second compound 0.00316 µM) was > 10 µM, the IC50 (second compound 0.01 µM) was > 10 µM and the IC50 (second compound 0.0316 µM) was > 10 µM. The IC50 (second compound 0.1 µM) was > 10 µM, the IC50 (second compound 0.316 µM) was > 10 µM and the IC50 (second compound 1 µM) was > 10 µM. It also gave a viability, T/C [1] of 99%, a viability, T/C [2] of 102% and a viability, T/C [3] of 85.9%. It also gave a viability, T/C [4] of 111%, a viability, T/C [5] of 119% and a viability, T/C [6] of 106%. The viability, T/C [7] was 107%, the viability, T/C [8] was 93.2% and the viability, T/C [9] was 107%. It also gave a viability, T/C [10] of 106%, a viability, T/C [11] of 99.8% and a viability, T/C [12] of 109%. For the same compound, the viability, T/C [13] was 97.2%, the viability, T/C [14] was 90.2% and the viability, T/C [15] was 96.4%. For the same compound, the viability, T/C [16] was 90.1%, the viability, T/C [17] was 95.1% and the viability, T/C [18] was 87.6%. For the same compound, the viability, T/C [19] was 98.4%, the viability, T/C [20] was 88.5% and the viability, T/C [21] was 92.2%. It also gave a viability, T/C [22] of 81.9%, a viability, T/C [23] of 91.9% and a viability, T/C [24] of 77.6%. For the same compound, the viability, T/C [25] was 82%, the viability, T/C [26] was 78.9% and the viability, T/C [27] was 77%. For the same compound, the viability, T/C [28] was 76.1%, the viability, T/C [29] was 79.8% and the viability, T/C [30] was 70%. It also gave a viability, T/C [31] of 76.3%, a viability, T/C [32] of 67.9% and a viability, T/C [33] of 75.5%. For the same compound, the viability, T/C [34] was 70%, the viability, T/C [35] was 71.2% and the viability, T/C [36] was 54.7%.

In the case of `CC(Cn1ccc(-c2ccc(C#N)c(Cl)c2)n1)NC(=O)c1cc(C(C)O)[nH]n1` (stereo unspecified) + CC(Nc1ccc2c(c1)OCCn1cc(N3C(=O)OCC3C(F)F)nc1-2)C(N)=O, the IC50 (second compound 0.00316 µM) is reported as > 10 µM, the IC50 (second compound 0.01 µM) is reported as > 10 µM and the IC50 (second compound 0.0316 µM) is reported as > 10 µM. For the same compound, the IC50 (second compound 0.1 µM) was > 10 µM, the IC50 (second compound 0.316 µM) was > 10 µM and the IC50 (second compound 1 µM) was > 10 µM. It also gave a viability, T/C [1] of 88.4%, a viability, T/C [2] of 101% and a viability, T/C [3] of 98.5%. For the same compound, the viability, T/C [4] was 110%, the viability, T/C [5] was 111% and the viability, T/C [6] was 101%. It also gave a viability, T/C [7] of 102%, a viability, T/C [8] of 103% and a viability, T/C [9] of 106%. It also gave a viability, T/C [10] of 115%, a viability, T/C [11] of 113% and a viability, T/C [12] of 110%. For the same compound, the viability, T/C [13] was 107%, the viability, T/C [14] was 106% and the viability, T/C [15] was 101%. It also gave a viability, T/C [16] of 89.8%, a viability, T/C [17] of 112% and a viability, T/C [18] of 91.5%. For the same compound, the viability, T/C [19] was 98.5%, the viability, T/C [20] was 98.8% and the viability, T/C [21] was 101%. For the same compound, the viability, T/C [22] was 94.8%, the viability, T/C [23] was 103% and the viability, T/C [24] was 79.8%. The viability, T/C [25] was 92.4%, the viability, T/C [26] was 90.5% and the viability, T/C [27] was 86.8%. For the same compound, the viability, T/C [28] was 80.2%, the viability, T/C [29] was 90.4% and the viability, T/C [30] was 72.8%. The viability, T/C [31] was 76.4%, the viability, T/C [32] was 76.8% and the viability, T/C [33] was 74.2%. For the same compound, the viability, T/C [34] was 74.8%, the viability, T/C [35] was 76.1% and the viability, T/C [36] was 59.2%.
